Where two headings read alike, the source gives them in different places.
What was measured:
[1] = target: T1, human recombinant ETA receptors (Homo sapiens, UniProt P25101); assay: Inhibition of endothelin binding to membranes from CHO cells carrying human ET receptors (ETA)
T1 construct: expressed in transfected cells; host or cells: CHO cells (microsomal membranes)
T1 sequence (P25101 21-427): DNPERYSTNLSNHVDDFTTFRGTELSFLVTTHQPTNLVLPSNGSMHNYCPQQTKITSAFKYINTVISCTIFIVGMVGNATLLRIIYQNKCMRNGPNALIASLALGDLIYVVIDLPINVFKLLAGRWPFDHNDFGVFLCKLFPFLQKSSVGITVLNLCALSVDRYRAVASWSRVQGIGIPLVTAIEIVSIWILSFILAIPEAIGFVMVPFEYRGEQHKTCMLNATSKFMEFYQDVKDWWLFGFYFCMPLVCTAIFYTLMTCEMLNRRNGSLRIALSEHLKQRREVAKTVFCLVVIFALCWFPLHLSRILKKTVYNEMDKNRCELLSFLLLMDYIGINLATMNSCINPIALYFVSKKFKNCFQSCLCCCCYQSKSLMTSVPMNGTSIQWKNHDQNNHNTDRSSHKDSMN

ETA receptors = target: T2, ETA receptors (Rattus norvegicus, UniProt P26684); assay: Inhibition of endothelin-1-induced contractions on isolated rat aortic rings; details: for pA2 value ETA: rat aortic rings, contraction induced by endothelin-1, 10 min incubation
T2 sequence (P26684 21-426): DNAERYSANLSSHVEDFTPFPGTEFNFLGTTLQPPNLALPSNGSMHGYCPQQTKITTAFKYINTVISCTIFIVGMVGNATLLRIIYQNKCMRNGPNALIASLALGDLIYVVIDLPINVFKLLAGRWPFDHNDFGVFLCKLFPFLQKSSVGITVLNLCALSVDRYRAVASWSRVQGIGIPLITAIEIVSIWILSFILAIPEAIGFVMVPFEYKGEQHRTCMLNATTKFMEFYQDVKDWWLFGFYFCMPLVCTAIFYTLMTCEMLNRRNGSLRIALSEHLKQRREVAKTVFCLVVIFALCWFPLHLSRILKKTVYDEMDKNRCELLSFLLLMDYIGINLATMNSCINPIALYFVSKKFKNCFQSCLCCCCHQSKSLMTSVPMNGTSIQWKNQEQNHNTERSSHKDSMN

[2] = target: T3, human recombinant ETB receptors (Homo sapiens, UniProt P24530); assay: Inhibition of endothelin binding to membranes from CHO cells carrying human ET receptors (ETB)
T3 construct: expressed in transfected cells; host or cells: CHO cells (microsomal membranes)
T3 sequence (P24530 27-442): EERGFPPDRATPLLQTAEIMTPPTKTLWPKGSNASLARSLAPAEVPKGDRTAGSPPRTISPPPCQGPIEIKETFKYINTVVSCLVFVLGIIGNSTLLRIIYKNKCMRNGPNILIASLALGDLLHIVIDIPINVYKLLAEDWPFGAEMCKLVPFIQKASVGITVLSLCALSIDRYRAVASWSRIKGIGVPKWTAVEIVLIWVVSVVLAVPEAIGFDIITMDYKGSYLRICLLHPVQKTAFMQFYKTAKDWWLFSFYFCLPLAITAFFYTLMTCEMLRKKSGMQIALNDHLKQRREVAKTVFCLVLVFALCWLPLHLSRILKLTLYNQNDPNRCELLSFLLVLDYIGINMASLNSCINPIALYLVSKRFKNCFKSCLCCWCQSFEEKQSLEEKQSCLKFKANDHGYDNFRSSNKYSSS
Method: 1) Inhibition of Endothelin Binding to Membranes from CHO Cells Carrying Human ET Receptors:
For competition binding studies, membranes of CHO cells expressing human recombinant ETA or ETB receptors were used. Microsomal membranes from recombinant CHO cells were prepared and the binding assay made as previously described (Breu V., et al, FEBS Lett 1993; 334:210).
The assay was performed in 200 uL 50 mM Tris/HCl buffer, pH 7.4, including 25 mM MnCl2, 1 mM EDTA and 0.5% (w/v) BSA in polypropylene microtiter plates. […]. […] After two h, the membranes were filtered on, filterplates containing GF/C filters (Unifilterplates from Canberra Packard S. A. Zürich, Switzerland). To each well, 50 uL of scintillation cocktail was added (MicroScint 20, Canberra Packard S. A. Zürich, Switzerland) and the filter plates counted in a microplate counter (TopCount, Canberra Packard S. A. Zürich, Switzerland).
All the test compounds were dissolved, diluted and added in DMSO. […] […].

ETB receptors = target: T4, ETB receptors (Rattus norvegicus, UniProt P21451); assay: Inhibition of sarafotoxin S6c-induced contractions on isolated rat tracheal rings; details: for pA2 value ETB: rat tracheal rings, contraction induced by sarafotoxin S6c, 10 min incubation
T4 sequence (P21451 27-442): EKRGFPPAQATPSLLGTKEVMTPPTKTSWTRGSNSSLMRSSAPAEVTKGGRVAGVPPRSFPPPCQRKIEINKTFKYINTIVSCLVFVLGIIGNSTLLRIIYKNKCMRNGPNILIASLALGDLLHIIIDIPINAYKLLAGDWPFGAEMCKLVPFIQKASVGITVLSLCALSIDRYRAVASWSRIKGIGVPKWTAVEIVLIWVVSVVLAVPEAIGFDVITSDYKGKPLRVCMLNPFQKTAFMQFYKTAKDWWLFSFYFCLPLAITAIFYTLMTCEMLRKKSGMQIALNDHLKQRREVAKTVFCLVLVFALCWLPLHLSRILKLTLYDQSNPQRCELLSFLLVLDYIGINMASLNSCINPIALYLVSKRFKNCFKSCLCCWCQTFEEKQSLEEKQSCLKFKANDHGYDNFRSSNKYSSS

[3] = membranes of CHO cells expressing human recombinant ETA receptors, 8 pM [125I]ET-1, 2 h at 20° C.
[4] = membranes of CHO cells expressing human recombinant ETB receptors, 8 pM [125I]ET-1, 2 h at 20° C.

IC50 [2, 4]	Structure (SMILES)	IC50 [1]	Kb (ETA receptors)	IC50 [2]	Kb (ETB receptors)	pA2 value ETB (ETB receptors)	IC50 [1, 3]	pA2 value ETA (ETA receptors)
	COc1ccccc1Oc1c(NS(=O)(=O)c2ccc(C(C)C)cn2)nc(-c2ccncc2)nc1OCCNS(=O)(=O)c1ccc(C)cc1 [Example 12]	2120 nM	851 nM	73.3 nM	513 nM			
	COc1ccccc1Oc1c(NS(=O)(=O)c2ccc(C(C)C)cn2)nc(N2CCOCC2)nc1OCCNS(=O)(=O)c1ccc(C)cc1 [Example 60, 5-isopropyl-N-[6-(2-(4-methylbenzenesulfonylamino)-ethoxy)-5-(o-methoxyphenoxy)-2-(N-morpholino)-4-pyrimidinyl]-2-pyridine sulfonamide]	1440 nM		16 nM		7.3		
33.1 nM	CCS(=O)(=O)NCCCOc1nc(C2CC2)nc(NS(=O)(=O)c2ccc(C(C)(C)C)cc2)c1Oc1ccccc1OC [Example 87]						48.1 nM	6.52
	CCS(=O)(=O)NCCOc1nc(N2CCOCC2)nc(NS(=O)(=O)c2ccc(C(C)C)cn2)c1Oc1ccccc1OC [Example 61, 5-isopropyl-N-[6-(2-(ethanesulfonylamino)-ethoxy)-5-(o-methoxyphenoxy)-2-(N-morpholino)-4-pyrimidinyl]-2-pyridine sulfonamide]	92 nM		183 nM		6.36		7.02
	CCS(=O)(=O)NCCOc1nc(-c2ncccn2)nc(NS(=O)(=O)c2ccc(C(C)C)cn2)c1Oc1ccccc1OC [Example 70, 5-isopropyl-N-[6-(2-(ethanesulfonylamino)-ethoxy)-5-(o-methoxyphenoxy)-2-(2-pyrimidinyl)-4-pyrimidinyl]-2-pyridine sulfonamide]	282 nM	891 nM	2070 nM				
	CCS(=O)(=O)NCCOc1nc(C(F)(F)F)nc(NS(=O)(=O)c2ccc(C(C)C)cn2)c1Oc1ccccc1OC [Example 55, 5-i.-propyl-N-[6-(2-(ethanesulfonylamino)-ethoxy)-5-(o-methoxyphenoxy)-2-trifluoromethyl-4-pyrimidinyl]pyridine-2-sulfonamide]					6.3		6.2
	CCCS(=O)(=O)NCCOc1nc(-c2cc(OC)c(OC)c(OC)c2)nc(NS(=O)(=O)c2ccc(C(C)C)cn2)c1Oc1ccccc1OC [Example 16, 5-i.-propyl-N-[6-(ethoxy-2-(1-propanesulfonamido))-5-(o-methoxyphenoxy)-2-(3,4,5-trimethoxyphenyl)-4-pyrimidinyl]pyridine-2-sulfonamide]		> 3160 nM	24.5 nM	34.7 nM		261 nM	
	COc1ccccc1Oc1c(NS(=O)(=O)c2ccc(C(C)C)cn2)nc(-c2cc(OC)c(OC)c(OC)c2)nc1OCCNS(=O)(=O)c1cccs1 [Example 15, 5-i.-propyl-N-[6-(ethoxy-2-thiophenesulfonamido)-5-(o-methoxyphenoxy)-2-(3,4,5-trimethoxyphenyl)-4-pyrimidinyl]pyridine-2-sulfonamide]			7.3 nM	40.7 nM		1320 nM	
	COc1ccccc1Oc1c(NS(=O)(=O)c2ccc(C(C)C)cn2)nc(-c2cc(OC)c(OC)c(OC)c2)nc1OCCNS(=O)(=O)c1ccc(C)cc1 [Example 11, 5-i.-propyl-N-[6-(ethoxy-2-(4-methylbenzenesulfonamido))-5-(o-methoxyphenoxy)-2-(3,4,5-trimethoxyphenyl)-4-pyrimidinyl]pyridine-2-sulfonamide]			4.3 nM		7.46	5110 nM	
	COc1ccccc1Oc1c(NS(=O)(=O)c2ccc(C(C)(C)C)cc2)nc(-c2ncccn2)nc1OCCNS(=O)(=O)c1cccs1 [Example 7, p-tert.-butyl-N-[6-(ethoxy-2-(2-thiophenesulfonamido))-5-(o-methoxyphenoxy)-2-(2-pyrimidinyl)-4-pyrimidinyl]benzene-sulfonamide]			15.8 nM		7.15	63.6 nM	6.08
	COc1ccccc1Oc1c(NS(=O)(=O)c2ccc(C(C)C)cn2)nc(-c2ccncc2)nc1OCCNS(=O)(=O)C(C)C [Example 10, 5-i.-propyl-N-[6-(ethoxy-2-(2-propanesulfonamido))-5-(o-methoxyphenoxy)-2-(4-pyridyl)-4-pyrimidinyl]pyridine-2-sulfonamide]	67.2 nM	186 nM	193 nM	1260 nM			
	CCCS(=O)(=O)NCCOc1nc(N2CCOCC2)nc(NS(=O)(=O)c2ccc(C)cn2)c1Oc1ccccc1OC [Example 59, 5-methyl-N-[6-(2-(1-propanesulfonylamino)-ethoxy)-5-(o-methoxyphenoxy)-2-(N-morpholino)-4-pyrimidinyl]-2-pyridine sulfonamide]	103 nM		189 nM		5.58		6.61
15 nM	CCCS(=O)(=O)NCCCOc1nc(C2CC2)nc(NS(=O)(=O)c2ccc(C(C)C)cn2)c1Oc1ccccc1OC [Example 92, 5-i.-propyl-N-[6-(3-(propanesulfonylamino)-propoxy)-5-(o-methoxyphenoxy)-2-cyclopropyl-4-pyrimidinyl]-pyridine-2-sulfonamide]						82.1 nM	
	COc1ccccc1Oc1c(NS(=O)(=O)c2ccc(C(C)(C)C)cc2)nc(C2CC2)nc1OCCCNS(=O)(=O)c1cccs1 [Example 88, 4-tert.-butyl-N-[6-(3-(2-thiophenesulfonylamino)-propoxy)-5-(o-methoxyphenoxy)-2-cyclopropyl-4-pyrimidinyl]-benzene-sulfonamide]					7.95		6.16
